Data reported in ChEMBL document CHEMBL1201862, “PubChem BioAssay data set” (2004).
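Tested at 5 concentrations; 48 h exposure; 96-well plates; endpoints linearly interpolated, else capped at highest concentration. Here, GI50 denotes the concentration required for 50% inhibition of growth.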 Calls of active or inactive are those of the source. Rule as the data show it: active = GI50 up to about 1.1 µM and inactive = higher.

Experiments:
Test in all cases: growth of human tumour cells (NCI), 48 h
[1] = tested on: 786-0
[2] = tested on: A498
[3] = tested on: A549
[4] = tested on: ACHN
[5] = tested on: BT-549
[6] = tested on: CAKI-1
[7] = tested on: CCRF-CEM
[8] = tested on: COLO 205
[9] = tested on: DU-145
[10] = tested on: EKVX
[11] = tested on: HCC 2998
[12] = tested on: HCT-116
[13] = tested on: HCT-15
[14] = tested on: HL-60
[15] = tested on: HOP-62
[16] = tested on: HOP-92
[17] = tested on: HT-29
[18] = tested on: Hs-578T
[19] = tested on: IGROV-1
[20] = tested on: K562
[21] = tested on: KM12
[22] = tested on: LOX IMVI
[23] = tested on: M14
[24] = tested on: MCF7
[25] = tested on: MDA-MB-231
[26] = tested on: MDA-MB-435
[27] = tested on: MDA-N
[28] = tested on: MOLT-4
[29] = tested on: Malme-3M
[30] = tested on: NCI-H226
[31] = tested on: NCI-H23
[32] = tested on: NCI-H460
[33] = tested on: NCI-H522
[34] = tested on: NCI/ADR-RES
[35] = tested on: OVCAR-3
[36] = tested on: OVCAR-4
[37] = tested on: OVCAR-5
[38] = tested on: OVCAR-8
[39] = tested on: PC-3
[40] = tested on: RPMI-8226
[41] = tested on: RXF 393
[42] = tested on: SF-268
[43] = tested on: SF-295
[44] = tested on: SF-539
[45] = tested on: SK-MEL-28
[46] = tested on: SK-MEL-2
[47] = tested on: SK-MEL-5
[48] = tested on: SK-OV-3
[49] = tested on: SN12C
[50] = tested on: SNB-19
[51] = tested on: SNB-75
[52] = tested on: SR
[53] = tested on: SW-620
[54] = tested on: T47D
[55] = tested on: TK-10
[56] = tested on: U-251
[57] = tested on: UACC-257
[58] = tested on: UACC-62
[59] = tested on: UO-31

O=C1c2ccccc2C2CNC1(O)c1ccccc12 (stereo not drawn)
GI50 [1]: > 100 µM (inactive)
GI50 [2]: > 100 µM (inactive)
GI50 [3]: > 100 µM (inactive)
GI50 [4]: > 100 µM (inactive)
GI50 [5]: > 100 µM (inactive)
GI50 [6]: > 100 µM (inactive)
GI50 [7]: > 100 µM (inactive)
GI50 [8]: > 100 µM (inactive)
GI50 [9]: > 100 µM (inactive)
GI50 [10]: > 100 µM (inactive)
GI50 [11]: > 100 µM (inactive)
GI50 [12]: > 100 µM (inactive)
GI50 [13]: > 100 µM
GI50 [14]: > 100 µM (inactive)
GI50 [15]: > 100 µM (inactive)
GI50 [16]: > 100 µM (inactive)
GI50 [17]: > 100 µM (inactive)
GI50 [18]: > 100 µM (inactive)
GI50 [19]: > 100 µM (inactive)
GI50 [20]: > 100 µM (inactive)
GI50 [21]: > 100 µM (inactive)
GI50 [22]: > 100 µM (inactive)
GI50 [23]: > 100 µM (inactive)
GI50 [24]: > 100 µM (inactive)
GI50 [25]: > 100 µM (inactive)
GI50 [26]: > 100 µM (inactive)
GI50 [27]: > 100 µM (inactive)
GI50 [28]: > 100 µM (inactive)
GI50 [29]: > 100 µM (inactive)
GI50 [30]: 35.1 µM (inactive)
GI50 [31]: > 100 µM (inactive)
GI50 [32]: > 100 µM (inactive)
GI50 [33]: > 100 µM (inactive)
GI50 [34]: > 100 µM (inactive)
GI50 [35]: > 100 µM (inactive)
GI50 [36]: > 100 µM (inactive)
GI50 [37]: > 100 µM (inactive)
GI50 [38]: > 100 µM (inactive)
GI50 [39]: > 100 µM (inactive)
GI50 [40]: > 100 µM (inactive)
GI50 [41]: > 100 µM (inactive)
GI50 [42]: > 100 µM (inactive)
GI50 [43]: > 100 µM (inactive)
GI50 [44]: > 100 µM (inactive)
GI50 [45]: > 100 µM (inactive)
GI50 [46]: > 100 µM (inactive)
GI50 [47]: > 100 µM (inactive)
GI50 [48]: > 100 µM (inactive)
GI50 [49]: > 100 µM (inactive)
GI50 [50]: > 100 µM (inactive)
GI50 [51]: > 100 µM (inactive)
GI50 [52]: > 100 µM (inactive)
GI50 [53]: > 100 µM (inactive)
GI50 [54]: > 100 µM (inactive)
GI50 [55]: > 100 µM (inactive)
GI50 [56]: > 100 µM (inactive)
GI50 [57]: > 100 µM (inactive)
GI50 [58]: > 100 µM (inactive)
GI50 [59]: > 100 µM (inactive)

COc1cc2c(NCCCCCCO[N+](=O)[O-])ncnc2c(OC)c1OC
GI50 [1]: 26 µM (inactive)
GI50 [2]: 18.1 µM (inactive)
GI50 [3]: 28.7 µM (inactive)
GI50 [4]: 32.9 µM (inactive)
GI50 [5]: 23.1 µM (inactive)
GI50 [6]: 19.1 µM (inactive)
GI50 [7]: 19.8 µM (inactive)
GI50 [8]: 21.4 µM (inactive)
GI50 [9]: 24.5 µM (inactive)
GI50 [10]: 22.5 µM (inactive)
GI50 [11]: 0.399 µM (active)
GI50 [12]: 20.6 µM (inactive)
GI50 [13]: 24 µM
GI50 [14]: 23.9 µM (inactive)
GI50 [15]: 26.6 µM (inactive)
GI50 [16]: 14.6 µM (inactive)
GI50 [17]: 36.1 µM (inactive)
GI50 [18]: 29.2 µM (inactive)
GI50 [19]: 23.1 µM (inactive)
GI50 [20]: 29.2 µM (inactive)
GI50 [21]: 16.2 µM (inactive)
GI50 [22]: 20.2 µM (inactive)
GI50 [23]: 16.9 µM (inactive)
GI50 [24]: 17.6 µM (inactive)
GI50 [25]: 14.2 µM (inactive)
GI50 [26]: 18.1 µM (inactive)
GI50 [27]: 20.6 µM (inactive)
GI50 [28]: 16.5 µM (inactive)
GI50 [29]: 13.1 µM (inactive)
GI50 [30]: 16 µM (inactive)
GI50 [31]: 19.1 µM (inactive)
GI50 [32]: 22.3 µM (inactive)
GI50 [33]: 19.7 µM (inactive)
GI50 [34]: 21.7 µM (inactive)
GI50 [35]: 23.1 µM (inactive)
GI50 [36]: 50.4 µM (inactive)
GI50 [37]: 30.2 µM (inactive)
GI50 [38]: 23.9 µM (inactive)
GI50 [39]: 20.7 µM (inactive)
GI50 [40]: 10.2 µM (inactive)
GI50 [41]: 17.9 µM (inactive)
GI50 [42]: 25.5 µM (inactive)
GI50 [43]: 21.1 µM (inactive)
GI50 [44]: 24.7 µM (inactive)
GI50 [45]: 45.1 µM (inactive)
GI50 [46]: 21.6 µM (inactive)
GI50 [47]: 11.9 µM (inactive)
GI50 [48]: 49.3 µM (inactive)
GI50 [49]: 28.7 µM (inactive)
GI50 [50]: 66.5 µM (inactive)
GI50 [51]: > 69.5 µM (inactive)
GI50 [52]: 9.75 µM (inactive)
GI50 [53]: 26.2 µM (inactive)
GI50 [54]: 23.8 µM (inactive)
GI50 [55]: 20.9 µM (inactive)
GI50 [56]: 35.2 µM (inactive)
GI50 [57]: 17.8 µM (inactive)
GI50 [58]: 18.2 µM (inactive)
GI50 [59]: 7.93 µM (inactive)
